Test results reported in ChEMBL document CHEMBL1130406, “Ortho-substituted benzofused macrocyclic lactams as zinc metalloprotease inhibitors” (J Med Chem, 1997).

Experiments:
Neprilysin = Neprilysin (Homo sapiens, UniProt P08473); assay: Inhibition of neutral endopeptidase
Thermolysin = molecular target: T1, Thermolysin (Bacillus thermoproteolyticus, UniProt P00800); assay: Inhibitory concentration required to inhibit thermolysin
T1 sequence (P00800 whole entry): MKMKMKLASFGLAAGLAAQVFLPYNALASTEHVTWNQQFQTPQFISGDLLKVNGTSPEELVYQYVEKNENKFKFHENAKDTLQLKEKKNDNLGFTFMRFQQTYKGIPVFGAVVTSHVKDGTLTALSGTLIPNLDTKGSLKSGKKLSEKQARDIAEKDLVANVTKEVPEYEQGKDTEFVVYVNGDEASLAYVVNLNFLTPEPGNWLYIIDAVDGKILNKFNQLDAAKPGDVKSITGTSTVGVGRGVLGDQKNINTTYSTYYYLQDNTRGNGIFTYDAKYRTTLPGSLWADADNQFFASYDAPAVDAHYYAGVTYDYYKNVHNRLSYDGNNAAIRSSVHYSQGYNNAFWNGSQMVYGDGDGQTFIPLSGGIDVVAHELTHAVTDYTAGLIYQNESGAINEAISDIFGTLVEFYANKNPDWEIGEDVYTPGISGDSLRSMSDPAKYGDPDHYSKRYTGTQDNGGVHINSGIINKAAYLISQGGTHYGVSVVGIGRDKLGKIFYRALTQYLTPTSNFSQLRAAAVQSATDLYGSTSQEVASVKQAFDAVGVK

Neprilysin, sequence (P08473 whole entry): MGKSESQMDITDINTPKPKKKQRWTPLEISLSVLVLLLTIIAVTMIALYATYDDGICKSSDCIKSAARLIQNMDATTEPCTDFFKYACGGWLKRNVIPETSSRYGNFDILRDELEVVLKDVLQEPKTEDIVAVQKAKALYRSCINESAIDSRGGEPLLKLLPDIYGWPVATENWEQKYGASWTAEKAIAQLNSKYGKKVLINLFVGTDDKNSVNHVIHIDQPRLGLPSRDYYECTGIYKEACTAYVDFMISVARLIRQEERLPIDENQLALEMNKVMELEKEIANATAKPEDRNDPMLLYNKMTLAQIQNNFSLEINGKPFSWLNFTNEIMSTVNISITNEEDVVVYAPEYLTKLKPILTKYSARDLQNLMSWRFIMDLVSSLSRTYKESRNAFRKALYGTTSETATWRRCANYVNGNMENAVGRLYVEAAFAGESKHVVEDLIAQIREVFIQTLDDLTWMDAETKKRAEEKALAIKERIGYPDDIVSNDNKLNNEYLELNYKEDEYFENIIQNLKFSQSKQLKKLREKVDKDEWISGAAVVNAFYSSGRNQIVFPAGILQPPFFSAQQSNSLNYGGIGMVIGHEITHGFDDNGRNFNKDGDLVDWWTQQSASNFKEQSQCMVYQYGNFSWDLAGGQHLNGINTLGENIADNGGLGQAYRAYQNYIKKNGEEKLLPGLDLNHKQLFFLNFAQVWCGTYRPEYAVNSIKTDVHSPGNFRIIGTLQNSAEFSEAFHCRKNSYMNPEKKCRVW

| IC50 (Neprilysin) [nM] | IC50 (Thermolysin) [nM] | Compound |
| --- | --- | --- |
| 3 | 600 | O=C1N[C@H](C(=O)O)CCCCCc2ccccc2C[C@@H]1CS |
| 7 | 2300 | O=C1N[C@H](C(=O)O)CCCCc2ccccc2C[C@H]1CS |
| 99 | 49000 | O=C1N[C@@H](C(=O)O)Cc2ccccc2CCCCC[C@@H]1CS |
| 900 | – | O=C1N[C@H](C(=O)O)Cc2ccccc2CCCCCCC[C@@H]1CS |
| 67 | 40000 | O=C1N[C@H](C(=O)O)Cc2ccccc2CCCCCC[C@@H]1CS |
| 224 | 41000 | O=C1N[C@H](C(=O)O)CCCCCCc2ccccc2C[C@@H]1CS |
| 136 | 16000 | O=C1N[C@@H](C(=O)O)Cc2ccccc2CCCCCC[C@@H]1CS |
| > 10000 | 60000 | O=C1N[C@@H](C(=O)O)Cc2ccccc2CCCCCCC[C@@H]1CS |
| 4 | 4000 | O=C1N[C@H](C(=O)O)CCCCCc2ccccc2C[C@H]1CS |
| 0.9 | 68 | O=C1N[C@H](C(=O)O)CCCCc2ccccc2C[C@@H]1CS |
| 27 | 1800 | O=C1N[C@H](C(=O)O)CCCCCCc2ccccc2C[C@H]1CS |

| Compound | IC50 (Neprilysin) [nM] | IC50 (Thermolysin) [nM] |
| --- | --- | --- |
| O=C(O)CNC(=O)C(CS)Cc1ccccc1 (configuration not stated) [THIORPHAN] | – | 9500 |
